Test results reported in patent publication US9918958B2, “Treatment for hypoxia” (priority 2011, dated 2018).

Key:
[1] = human, single doses of 300 mg, 1000 mg, 2000 mg and 4000 mg (n=6 per dose)
Experimental: The study was a double-blind, placebo (n=8) controlled single ascending dose (SAD) trial examining 5-HMF doses of 300 mg, 1000 mg, 2000 mg and 4000 mg (n=6 per dose).

[2] = test system: sickle cell disease mouse model; conditions: cited from earlier work
[3] = animals
[4] = hypoxic challenge test (12% oxygen, SpO2 by pulse oximeter); format: in vivo, human
Experimental: The hypoxic challenge test was conducted it the following manner: using face masks and air tanks containing 12% oxygen (compared to 21% oxygen in normal air at sea level), subjects inhaled the 12% hypoxic mixture for 5 minutes at a time just prior to starting the dose of study medication (5-HMF or placebo, double-blind) and then again at each of the time intervals 0.75, 2, 4 and 8 hours after the dose. A finger tip oxygen sensing probe connected to a pulse oximeter provided continuous measurement of SpO2 values (percentage of hemoglobin containing at least one oxygen molecule) and the SpO2 values were recorded every 20 seconds during the hypoxic challenge and during a 3-minute recovery period (during which normal air was inspired). The hypoxia challenge was aborted if SpO2 values fell to less than 85%. FIG. 1 illustrates the effect of 5-HMF during a hypoxic challenge. The data compares the fall in mean SpO2 values of placebo and the 2000 mg dose of 5-HMF prior to a hypoxic challenge given at the 2 hour time point post-dose. The mean change in SpO2 levels from start is shown for each one-minute interval of the 5-minute hypoxic challenge. […] It is noteworthy that the difference between placebo and drug becomes greater as the level of hypoxia in the placebo subjects increases. […] Since the level of hypoxic challenge in this initial human study was moderate (no clinical symptoms of hypoxia were present), the impact of 5-HMF should be even greater when the hypoxic challenge is more extreme.
An illustration of the dose-dependent ability of 5-HMF to impact blood oxygenation during a hypoxic challenge is shown in FIG. 2. Because there are appreciable inter-individual differences in the magnitude of the decline of SpO2 in response to a hypoxic challenge, each subject (both placebo and 5-HMF) was tested for the decline in SpO2 at the 5 minute time point for both (i) the challenge given prior to the dose of placebo or 5-HMF and (ii) the challenge given 2 hours after the dose of placebo or 5-HMF. The dotted line in FIG. 2 represents the “baseline” amount of decline occurring during the challenge given prior to dosing placebo or 5-HMF. The results of the decline in SpO2 for each subject at the end the challenge given 2 hours post-dose results were compared to the subject's baseline amount. Thus each subject acted as his/her own control. The blue dots represent individual subject scores and the horizontal black line is the mean SpO2 change relative to the pre-dose hypoxic challenge.

mice = conditions: simulated altitude of 9,500 meters; cited from earlier work

SMILES: O=Cc1ccc(CO)o1 [5-HMF, 5-hydroxymethyl-2-furfural]
- safety and tolerability [1]: safe and well tolerated
- P50 of SCD Hb [2]: lower P50 (left shift)
- protection against lethal effects of hypoxia [2]: provides in vivo protection against the lethal effects of hypoxia
- safety window suggested by repeat dose animal toxicology and safety data [3]: wide safety window in humans is likely
- effect on blood oxygen saturation during hypoxia challenge compared to placebo ([4]; 300 mg dose, 2 hours post-dose): small
- mean change in ending SpO2 levels relative to the pre-dose hypoxic challenge ([4]; 1000 mg dose, 2 hours post-dose, 5 minute time point of challenge): approximately 2.5 unit
- fall in mean SpO2 after one minute of inhalation of hypoxic air ([4]; 2000 mg dose, challenge at 2 hour post-dose, 12% oxygen): 5 units
- effect on SpO2 during hypoxic challenge relative to placebo ([4]; 2000 mg dose, challenge at 2 hour post-dose, from one minute on for the remainder of the 5-minute challenge): less severe decrease in SpO2 during the hypoxic challenge
- effect on blood oxygen saturation during hypoxia challenge compared to placebo ([4]; all dose levels (300-4000 mg), 2 hours post-dose): increased the blood oxygen saturation of the test subjects compared to placebo at all dose levels
- difference from placebo of the most active dose levels ([4]; top three doses (1000, 2000, 4000 mg), p=0.0498): statistically significant
- survival under hypobaric hypoxia (mice): increase survival of mice
